Source: PMC5382548 (Scientific Reports, 2015)

Tests used:
KRAS mRNA in SW620 cells = assay: KRAS mRNA steady-state levels, Taqman real-time RT-PCR, SW620; type: cell-based, human; details: equitoxic (IC50) concentrations, 72 h
Experimental: The effects of compounds on KRAS transcription in colon cancer cells (HCT116 and SW620) were evaluated by quantifying KRAS mRNA steady-state levels using Taqman real-time RT-PCR.
(a) KRAS mRNA steady-state expression was evaluated by Taqman Real-time RT-PCR using specific Taqman Assays for KRAS and β-Actin for normalization. KRAS mRNA steady-state expression levels were calculated by the ΔΔCt method, using DMSO (vehicle control) for calibration; and (b) KRAS protein steady-state expression evaluated by immunoblot relative to control (DMSO vehicle) Results are expressed as mean ± SEM of at least three independent experiments; *p < 0.05 and §p < 0.01 from DMSO (vehicle control). […]
Taqman Real-time PCR reactions were performed using 1.5 µg of total RNA, using High Capacity RNA to cDNA kit, according to the manufacturer`s instruction. […] The comparative threshold cycle method was used to calculate the amplification factor, where the threshold cycle (Ct) is defined as the cycle number at which the fluorescence passes the fixed threshold intensity level. KRAS expression levels in different samples were calculated on the basis of ΔΔCt method. […]
Hoechst labeling of cells was used to detect apoptotic nuclei by evaluation of nuclear morphology under fluorescence microscopy. […] Fluorescent nuclei were scored and categorized according to the condensation and staining characteristics of […]

KRAS21R G4 = assay: FRET melting competition assay, labelled KRAS21R; type: binding, human; details: ligand 1 μM, labelled KRAS21R 0.2 μM
Experimental: To assess selectivity of the IQc compounds 2d and 3e to different DNA sequences, we performed competitive FRET experiments with 0.2 μM of labelled KRAS21R and F21T G4 and increasing concentrations of two non-fluorescent competitors, 26mer ds-DNA or the human telomeric sequence (HT21). A decrease in ΔTm indicates the displacement of the ligand from labelled G4 by the competitor DNA.
Figure 3 FRET melting competition assay data for (a) 2d and (b) 3e (1 μM) in complex with KRAS21R and F21T G4s (0.2 μM), with increasing concentrations of non-labeled 26ds, HT21 or KRAS21R (0.4 to 25 μM) competitor, in K-cacodylate buffer (pH 7.4, 60 mM K^+).
Oligonucleotide sequences were purchased from Eurofins MWG Synthesis GmbH, Germany or STAB VIDA Genomics Lab, Caparica, Lisbon, Portugal. The labelled oligonucleotides used in the FRET assays had attached the donor fluorophore FAM (6-carboxyfluorescein) and the acceptor fluorophore TAMRA (6-carboxytetramethylrhodamine): KRAS21R: 5′-FAM-[…]-TAMRA-3′; KRAS32R: 5′-FAM-[…]-TAMRA-3′; UTR-1: 5′-FAM-GCGGCGGCGGAGG-TAMRA-3′; UTR-2: 5′-FAM-[…]-TAMRA-3; T-Loop:5′-FAM-[…]-TAMRA-3′; F21T: 5′-FAM-[…]-TAMRA-3′. Non-labelled oligonucleotides were used in FRET competition assays and in the spectroscopic studies: ds26: - d(5′-CAATCGGATCGAATT CGATCCGATTG-3′); KRAS21R: 5′-[…]-3′; HT21: 5′-[…]-3′. […]

[1] = tested on: KRAS mRNA in Panc-1 cells; set-up: method as in PMID 18490377; details: 12 or 24 hours, 50 μM; cited from earlier work

SMILES: CCN(CC)CCCNc1ccc2[nH]c3c(c[n+](C)c4ccc(NCCCN(CC)CC)cc34)c2c1.[Cl-] [3d]
- Reduction of KRAS mRNA steady-state levels, SW620 (KRAS mRNA in SW620 cells): 25%

SMILES: CCN(CC)CCCNc1ccc2c(c1)[nH]c1c2c[n+](C)c2ccc(NCCCN(CC)CC)cc12.[Cl-] [3e]
- Concentration of HT21 required to displace ligand from its complex with KRAS21R (KRAS21R G4): > 10 µM
- Fold higher concentration of HT21 required to displace ligand from its complex with KRAS21R (KRAS21R G4): more than 50 fold

SMILES: C[n+]1ccc(-c2c3nc(c(-c4cc[n+](C)cc4)c4ccc([nH]4)c(-c4cc[n+](C)cc4)c4ccc([nH]4)c(-c4cc[n+](C)cc4)c4nc2C=C4)C=C3)cc1 [TMPyP4, reference compound]
- Decrease in KRAS mRNA levels [1]: ~30%

SMILES: CCN(CC)CCCNc1ccc2c(c1)c1[nH]c3ccccc3c1c[n+]2C [2d]
- Reduction of KRAS mRNA steady-state levels, SW620 (KRAS mRNA in SW620 cells): 90%
